The values below come from article PMC9600550, “The pH Robustness of Bacterial Sensing” (mBio, 2022).

SMILES strings stand for the structures. Like-named read-outs stand apart in the source and are kept apart here.

The target in one experiment is T1, McpH-LBD (Pseudomonas putida, UniProt Q88R14).
T1 construct: pET28b(+) derivative containing a DNA fragment encoding the McpH-LBD; made in house
Nature of the experiment: ITC titration of McpH-LBD with adenine at different pH. The format is binding, P. putida KT2440. The note with it: 25°C.

The target of the next experiment is T2, TtgV (Pseudomonas putida, UniProt Q93PU6).
T2 construct: made in house
Nature of the experiment: ITC titration of TtgV with benzonitrile at different pH. It is filed as binding, P. putida DOT-T1E. The note with it: 25°C. For orientation: Isothermal titration calorimetry measures the heat released or taken up as one component is titrated into another.

A further experiment deals with T3, McpQ-LBD (Pseudomonas putida, UniProt Q88D09).
T3 construct: pET28b(+) derivative containing a DNA fragment encoding the McpQ-LBD; made in house
Nature of the experiment: ITC titration of McpQ-LBD with citrate at different pH. It is filed as binding, P. putida KT2440. As to conditions: 25°C.

The next experiment addresses T4, MBP (Escherichia coli, UniProt P0AEX9).
T4 construct: His tag (from pET28b(+)) (N); made in house; host or cells: Escherichia coli BL21(DE3)
In words: ITC titration of maltose-binding protein (MBP) with D-maltose at different pH. Also on record: species or system E. coli K12.

The next experiment concerns the target AdmX-LBD (Serratia plymuthica, UniProt P0DV33). Nature of the experiment: ITC titration of AdmX-LBD with indole-3-pyruvic acid at different pH. It is filed as binding, Serratia plymuthica A153.
The subject of a further experiment is P. aeruginosa PAO1. In words: Quantitative capillary chemotaxis assay at different pH. As to conditions: 1 mM ligand. The format is cell-based. As for the experimental part: We evaluated the effect of pH on P. aeruginosa chemotaxis to L-Ala, a ligand of the PctA chemoreceptor, using the quantitative capillary chemotaxis assay. Prior to performing these assays, we evaluated cell viability and motility at different pH values. We grew cells in minimal medium to an OD660 of 0.4, washed twice with chemotaxis buffer at the different pH values, resuspended in the corresponding buffer, and incubated for 1 h. Cells were then plated out to assess cell viability. […] We then determined the effect of different pH on the chemotactic responses to L-Ala.
Chemotaxis assays were performed as previously described ([79]) with some modifications. When cultures reached an OD660 of 0.4, the cells were gently washed twice with chemotaxis buffer at different pH and then resuspended in fresh buffer. The chemoeffector solutions were prepared in the corresponding chemotaxis buffer. Data are the means and standard deviations of at least 3 biological replicates conducted in triplicate.

A further experiment has as its target T5, PctA-LBD (Pseudomonas aeruginosa, UniProt G3XD24).
T5 construct: pET28b(+) derivative containing a DNA fragment encoding the PctA-LBD; made in house
Nature of the experiment: ITC titration of PctA-LBD with L-alanine at different pH. It is filed as binding, P. aeruginosa PAO1.

Where [1] appears, read: defined as binding with a KD below 1 mM.
Setting [2] is: pH 6.0, read-out: KD at pH optimum.

T2 sequence (Q93PU6 whole entry): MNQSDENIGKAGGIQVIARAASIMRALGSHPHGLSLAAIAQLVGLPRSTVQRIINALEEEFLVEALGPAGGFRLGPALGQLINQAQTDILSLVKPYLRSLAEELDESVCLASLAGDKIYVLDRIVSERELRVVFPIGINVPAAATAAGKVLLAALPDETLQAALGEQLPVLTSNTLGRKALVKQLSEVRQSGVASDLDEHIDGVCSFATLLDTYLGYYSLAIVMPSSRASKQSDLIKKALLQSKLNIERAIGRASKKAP
Sequence of AdmX-LBD (P0DV33 91-304): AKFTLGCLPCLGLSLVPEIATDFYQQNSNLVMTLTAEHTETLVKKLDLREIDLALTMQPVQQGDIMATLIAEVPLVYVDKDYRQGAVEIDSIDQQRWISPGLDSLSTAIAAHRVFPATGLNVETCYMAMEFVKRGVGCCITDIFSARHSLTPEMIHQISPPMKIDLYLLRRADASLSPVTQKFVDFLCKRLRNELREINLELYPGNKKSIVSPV
T5 sequence (G3XD24 32-276): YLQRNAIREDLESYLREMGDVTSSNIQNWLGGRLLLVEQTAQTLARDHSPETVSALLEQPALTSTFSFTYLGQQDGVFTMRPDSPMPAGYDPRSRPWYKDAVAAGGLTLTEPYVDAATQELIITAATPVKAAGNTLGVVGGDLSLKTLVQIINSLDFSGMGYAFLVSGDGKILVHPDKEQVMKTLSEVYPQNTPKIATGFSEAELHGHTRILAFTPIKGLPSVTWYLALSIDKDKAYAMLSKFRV
T1 sequence (Q88R14 51-276): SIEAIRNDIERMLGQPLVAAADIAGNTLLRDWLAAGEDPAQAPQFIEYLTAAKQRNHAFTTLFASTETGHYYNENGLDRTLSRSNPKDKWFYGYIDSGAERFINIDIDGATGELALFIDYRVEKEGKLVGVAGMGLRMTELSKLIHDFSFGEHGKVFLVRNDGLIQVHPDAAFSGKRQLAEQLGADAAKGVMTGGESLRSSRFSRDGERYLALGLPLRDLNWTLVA
T3 sequence (Q88D09 45-282): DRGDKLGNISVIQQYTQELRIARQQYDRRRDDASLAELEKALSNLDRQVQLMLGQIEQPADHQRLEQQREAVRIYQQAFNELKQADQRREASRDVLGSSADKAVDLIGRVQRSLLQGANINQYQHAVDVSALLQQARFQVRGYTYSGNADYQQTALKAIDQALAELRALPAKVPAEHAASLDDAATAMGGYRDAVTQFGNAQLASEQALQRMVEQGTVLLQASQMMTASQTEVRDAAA
Procedure for AdmX-LBD: (§1) To assess the pH dependence of ligand-binding, freshly purified proteins were dialyzed overnight into the buffers described in Table S1 and submitted to microcalorimetric titration.
(§2) Freshly purified proteins were dialyzed into the buffers specified in Table S1 and introduced into the sample cell of an VP-microcalorimeter (MicroCal). Proteins at 15 to 100 μM were titrated with 0.25 to 10 mM ligand solutions that were made up in dialysis buffer. For pH-active ligands, the pH of the ligand solutions was adjusted to that of the dialysis buffer by the addition of concentrated HCl or NaOH. Titrations of MBP and McpV-LBD were conducted at 15°C to favor endothermic contributions to binding heats, whereas the remaining titrations were carried out at 25°C. Raw titration data were integrated, corrected for ligand-dilution heats and normalized with the ligand concentrations. Resulting data were fitted with the “One Binding site model” of the MicroCal version of ORIGIN. Provided are the dissociation constants derived from one experiment and the error of curve-fitting.
Procedure for MBP: as §1, §2
Procedure for McpH-LBD: as §1, §2
Procedure for McpQ-LBD: as §1, §2
Procedure for PctA-LBD: as §1, §2
Procedure for TtgV: as §1, §2

At McpH-LBD, `Nc1ncnc2[nH]cnc12` [Adenine] had a pH optimum of 5.0. In addition, the “pH range of binding” value at McpH-LBD (setting [1]) is given as 3.5-10.0. Further, at McpH-LBD (pH 5.0, read-out: KD at pH optimum), the Kd (commonly the concentration at which binding is half-saturated) was determined as 1680 nM.
`N#Cc1ccccc1` [Benzonitrile] showed a pH optimum on TtgV of 6.0. In addition, the “pH range of binding” value at TtgV (setting [1]) is given as 5.0-9.0. Besides, on TtgV (setting [2]), the Kd was found to be 67.6 µM.
On to `O=C(O)CC(O)(CC(=O)O)C(=O)O` [Citrate], for which, on McpQ-LBD, the pH optimum was 6.0. The Kd on McpQ-LBD (setting [2]) amounted to 153 µM.
As to `OC[C@H]1O[C@H](O[C@H]2[C@H](O)[C@@H](O)[C@H](O)O[C@@H]2CO)[C@H](O)[C@@H](O)[C@@H]1O` [D-maltose], on MBP, the “width of pH range of ligand recognition” value worked out at 8.5 pH units. The pH optimum at MBP (15°C) came to 9.0. Besides, the “pH range of binding” value on MBP (15°C, defined as binding with a KD below 1 mM) is recorded as 2.5-11.0.
On AdmX-LBD, `O=C(O)C(=O)Cc1c[nH]c2ccccc12` [Indole-3-pyruvic acid] had a Kd of 12.7 µM. For the same compound, the pH optimum at AdmX-LBD (ITC, 25°C) is recorded as 8.0. Further, the “pH range of binding” value at AdmX-LBD (ITC, 25°C, defined as binding with a KD below 1 mM) is given as 7.5-8.0.
For the compound `C[C@H](N)C(=O)O` [L-alanine], the “pH of optimal chemotactic responses” value in the experiment on P. aeruginosa PAO1 was determined as 7.0. Further, the pH optimum on PctA-LBD (25°C) is reported as 5.5. In addition, the “pH range of binding” value on PctA-LBD (25°C, defined as binding with a KD below 1 mM) is 3.0-11.5. The Kd is 1260 ± 700 nM at PctA-LBD (average over the pH range 3.0 to 11.0, read-out: average dissociation constant (KD)); 1300 nM on PctA-LBD (pH 3.0, read-out: dissociation constant (KD)); 910 nM on PctA-LBD (pH 9.0, read-out: dissociation constant (KD)); 3900 nM at PctA-LBD (pH 11.0, read-out: dissociation constant (KD)). Besides, on PctA-LBD (pH 3.0 to 11.5), the “width of pH range of high-affinity binding” value is 8.5 pH units.
